Laboratory results published in ChEMBL document CHEMBL1201861, “Genomics of Drug Sensitity in Cancer screening data, Wellcome Trust Sanger Institute”.

Key:
Assay in all cases: cells
[1] = test system: AU565; assay type: functional, cell-based, Homo sapiens; conditions: Homo sapiens, AU565;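 further: cell viability assay measuring growth inhibition of human AU565 cells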
Description: SANGER: Inhibition of human AU565 cell growth in a cell viability assay.

[2] = test system: NCI-H596; assay type: functional, cell-based, Homo sapiens; conditions: Homo sapiens, NCI-H596;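 further: growth inhibition of NCI-H596 cells, read out with a cell viability assay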
Description: SANGER: Inhibition of human NCI-H596 cell growth in a cell viability assay.

[3] = test system: SW1710; assay type: functional, cell-based, Homo sapiens; conditions: Homo sapiens, SW1710;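 further: growth inhibition of SW1710 cells, determined with a cell viability assay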
Description: SANGER: Inhibition of human SW1710 cell growth in a cell viability assay.

[4] = test system: LB2518-MEL; assay type: functional, cell-based, Homo sapiens; conditions: Homo sapiens, LB2518-MEL;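 further: growth inhibition of human LB2518-MEL cells, measured with a cell viability assay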
Description: SANGER: Inhibition of human LB2518-MEL cell growth in a cell viability assay.

[5] = test system: K562; assay type: functional, cell-based; conditions: Homo sapiens
Description: SANGER: Inhibition of human K-562 cell growth in a cell viability assay.

[6] = test system: VA-ES-BJ; assay type: functional, cell-based, Homo sapiens; conditions: Homo sapiens, VA-ES-BJ;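 further: growth inhibition of the VA-ES-BJ cell line, read out by a cell viability assay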
Description: SANGER: Inhibition of human VA-ES-BJ cell growth in a cell viability assay.

[7] = test system: DoTc2-4510; assay type: functional, cell-based, Homo sapiens; conditions: Homo sapiens, DoTc2-4510
[8] = test system: EW-16; assay type: functional, cell-based, Homo sapiens; conditions: Homo sapiens, EW-16;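 further: growth inhibition of human EW-16 cells, read out as cell viability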
Description: SANGER: Inhibition of human EW-16 cell growth in a cell viability assay.

[9] = test system: NB69; assay type: functional, cell-based, Homo sapiens; conditions: Homo sapiens, NB69;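 further: growth inhibition of NB69 cells, determined by a cell viability assay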
Description: SANGER: Inhibition of human NB69 cell growth in a cell viability assay.

[10] = test system: T84; assay type: functional, cell-based, Homo sapiens; conditions: Homo sapiens, T84;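 further: growth inhibition measured with a cell viability readout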
Description: SANGER: Inhibition of human T84 cell growth in a cell viability assay.

[11] = test system: COR-L88; assay type: functional, cell-based; conditions: Homo sapiens;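 further: growth inhibition of COR-L88 cells, read out with a cell viability assay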
Description: SANGER: Inhibition of human COR-L88 cell growth in a cell viability assay.

[12] = test system: COR-L105; assay type: functional, cell-based, Homo sapiens; conditions: Homo sapiens, COR-L105;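 further: cell growth inhibition determined with a viability assay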
Description: SANGER: Inhibition of human COR-L105 cell growth in a cell viability assay.

[13] = test system: K5; assay type: functional, cell-based, Homo sapiens; conditions: Homo sapiens, K5
Description: SANGER: Inhibition of human K5 cell growth in a cell viability assay.

[14] = test system: ACHN; assay type: functional, cell-based, Homo sapiens; conditions: Homo sapiens, ACHN;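 further: cell viability read-out used to gauge how strongly growth of human ACHN cells is suppressed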
Description: SANGER: Inhibition of human ACHN cell growth in a cell viability assay.

[15] = test system: ES3; assay type: functional, cell-based, Homo sapiens; conditions: Homo sapiens, ES3;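 further: growth inhibition of ES3 cells, read out with a cell viability assay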
[16] = test system: NCI-H1650; assay type: functional, cell-based, Homo sapiens; conditions: Homo sapiens, NCI-H1650;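 further: growth inhibition of human NCI-H1650 cells measured by a cell viability assay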
Description: SANGER: Inhibition of human NCI-H1650 cell growth in a cell viability assay.

[17] = test system: SW1990; assay type: functional, cell-based, Homo sapiens; conditions: Homo sapiens, SW1990;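 further: cell growth inhibition determined with a viability assay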
Description: SANGER: Inhibition of human SW1990 cell growth in a cell viability assay.

[18] = test system: GP5d; assay type: functional, cell-based, Homo sapiens; conditions: Homo sapiens, GP5d;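 further: growth inhibition of human GP5d cells, read out with a cell viability assay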
Description: SANGER: Inhibition of human GP5d cell growth in a cell viability assay.

[19] = test system: G-401; assay type: functional, cell-based, Homo sapiens; conditions: Homo sapiens, G-401
Description: SANGER: Inhibition of human G-401 cell growth in a cell viability assay.

[20] = test system: OAW-28; assay type: functional, cell-based, Homo sapiens; conditions: Homo sapiens, OAW-28;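 further: growth inhibition of OAW-28 cells, read out with a cell viability assay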
Description: SANGER: Inhibition of human OAW-28 cell growth in a cell viability assay.

[21] = test system: M14; assay type: functional, cell-based, Homo sapiens; conditions: Homo sapiens, M14;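 further: growth inhibition of M14 cells, read out with a cell viability assay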
Description: SANGER: Inhibition of human M14 cell growth in a cell viability assay.

[22] = test system: NCI-H23; assay type: functional, cell-based, Homo sapiens; conditions: Homo sapiens, NCI-H23;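 further: cell viability assay measuring growth inhibition of NCI-H23 cells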
Description: SANGER: Inhibition of human NCI-H23 cell growth in a cell viability assay.

[23] = test system: PANC-03-27; assay type: functional, cell-based, Homo sapiens; conditions: Homo sapiens, PANC-03-27
Description: SANGER: Inhibition of human PANC-03-27 cell growth in a cell viability assay.

[24] = test system: A 172; assay type: functional, cell-based, Homo sapiens; conditions: Homo sapiens, A 172;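 further: growth inhibition of A172 cells, measured with a cell viability readout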
[25] = test system: CP66-MEL; assay type: functional, cell-based, Homo sapiens; conditions: Homo sapiens, CP66-MEL;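 further: growth inhibition of CP66-MEL cells determined in a cell viability assay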
Description: SANGER: Inhibition of human CP66-MEL cell growth in a cell viability assay.

[26] = test system: DMS-114; assay type: functional, cell-based, Homo sapiens; conditions: Homo sapiens, DMS-114
[27] = test system: MMAC-SF; assay type: functional, cell-based, Homo sapiens; conditions: Homo sapiens, MMAC-SF;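 further: growth inhibition of human MMAC-SF cells, read out with a cell viability assay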
Description: SANGER: Inhibition of human MMAC-SF cell growth in a cell viability assay.

[28] = test system: NCI-H1563; assay type: functional, cell-based, Homo sapiens; conditions: Homo sapiens, NCI-H1563;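 further: growth inhibition of human NCI-H1563 cells, read out with a cell viability assay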
Description: SANGER: Inhibition of human NCI-H1563 cell growth in a cell viability assay.

[29] = test system: HD-MY-Z; assay type: functional, cell-based, Homo sapiens; conditions: Homo sapiens, HD-MY-Z;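 further: growth inhibition of HD-MY-Z cells, read out with a cell viability assay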
Description: SANGER: Inhibition of human HD-MY-Z cell growth in a cell viability assay.

[30] = test system: NB13; assay type: functional, cell-based, Homo sapiens; conditions: Homo sapiens, NB13;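 further: cell viability readout measuring growth inhibition of human NB13 cells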
Description: SANGER: Inhibition of human NB13 cell growth in a cell viability assay.

[31] = test system: CAL-120; assay type: functional, cell-based, Homo sapiens; conditions: Homo sapiens, CAL-120;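 further: cell growth inhibition, read out as cell viability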
Description: SANGER: Inhibition of human CAL-120 cell growth in a cell viability assay.

[32] = test system: ASPC1; assay type: functional, cell-based, Homo sapiens; conditions: Homo sapiens, ASPC1;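 further: growth inhibition of AsPC-1 cells, read out with a cell viability assay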
Description: SANGER: Inhibition of human AsPC-1 cell growth in a cell viability assay.

[33] = test system: GI-1; assay type: functional, cell-based, Homo sapiens; conditions: Homo sapiens, GI-1;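 further: growth inhibition of human GI-1 cells, measured with a cell viability readout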
Description: SANGER: Inhibition of human GI-1 cell growth in a cell viability assay.

[34] = test system: DBTRG-05MG; assay type: functional, cell-based, Homo sapiens; conditions: Homo sapiens, DBTRG-05MG;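 further: cell viability assay measuring growth inhibition of human DBTRG-05MG cells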
Description: SANGER: Inhibition of human DBTRG-05MG cell growth in a cell viability assay.

[35] = test system: UMUC3; assay type: functional, cell-based, Homo sapiens; conditions: Homo sapiens, UMUC3;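 further: growth inhibition of human UM-UC-3 cells, read out with a cell viability assay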
Description: SANGER: Inhibition of human UM-UC-3 cell growth in a cell viability assay.

[36] = test system: COLO-824; assay type: functional, cell-based, Homo sapiens; conditions: Homo sapiens, COLO-824
Description: SANGER: Inhibition of human COLO-824 cell growth in a cell viability assay.

[37] = test system: SF-268; assay type: functional, cell-based, Homo sapiens; conditions: Homo sapiens, SF-268;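 further: growth inhibition of SF-268 cells determined with a cell viability assay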
Description: SANGER: Inhibition of human SF268 cell growth in a cell viability assay.

[38] = test system: LB771-HNC; assay type: functional, cell-based, Homo sapiens; conditions: Homo sapiens, LB771-HNC;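 further: growth inhibition of LB771-HNC human cells, read out with a cell viability assay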
[39] = test system: Huh-7; assay type: functional, cell-based, Homo sapiens; conditions: Homo sapiens, Huh-7;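 further: HuH-7 cell growth inhibition, read out with a cell viability assay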
Description: SANGER: Inhibition of human HuH-7 cell growth in a cell viability assay.

[40] = test system: SK-N-FI; assay type: functional, cell-based, Homo sapiens; conditions: Homo sapiens, SK-N-FI;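 further: cell viability assay measuring growth inhibition of human SK-N-FI cells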
Description: SANGER: Inhibition of human SK-N-FI cell growth in a cell viability assay.

[41] = test system: IST-MES1; assay type: functional, cell-based, Homo sapiens; conditions: Homo sapiens, IST-MES1;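 further: growth inhibition of IST-MES1 cells, measured with a cell viability assay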
Description: SANGER: Inhibition of human IST-MES1 cell growth in a cell viability assay.

[42] = test system: CW-2; assay type: functional, cell-based, Homo sapiens; conditions: Homo sapiens, CW-2;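 further: growth inhibition of CW-2 cells, read out by a cell viability assay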
Description: SANGER: Inhibition of human CW-2 cell growth in a cell viability assay.

[43] = test system: HT-1376; assay type: functional, cell-based, Homo sapiens; conditions: Homo sapiens, HT-1376
Description: SANGER: Inhibition of human HT-1376 cell growth in a cell viability assay.

[44] = test system: MDA-MB-175-VII; assay type: functional, cell-based, Homo sapiens; conditions: Homo sapiens, MDA-MB-175-VII
[45] = test system: NCI-N87; assay type: functional, cell-based, Homo sapiens; conditions: Homo sapiens, NCI-N87;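 further: growth inhibition of human NCI-N87 cells, read out with a cell viability assay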
Description: SANGER: Inhibition of human NCI-N87 cell growth in a cell viability assay.

[46] = test system: P30-OHK; assay type: functional, cell-based; conditions: Homo sapiens;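 further: growth inhibition of the P30-OHK cell line, read out with a cell viability assay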
Description: SANGER: Inhibition of human P30-OHK cell growth in a cell viability assay.

[47] = test system: MN-60; assay type: functional, cell-based; conditions: Homo sapiens;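 further: growth inhibition of the MN-60 cell line, determined with a cell viability assay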
Description: SANGER: Inhibition of human MN-60 cell growth in a cell viability assay.

[48] = test system: U-118-MG; assay type: functional, cell-based, Homo sapiens; conditions: Homo sapiens, U-118-MG
Description: SANGER: Inhibition of human U-118-MG cell growth in a cell viability assay.

Structure (SMILES): Cc1ccc(Nc2nccc(N(C)c3ccc4c(C)n(C)nc4c3)n2)cc1S(N)(=O)=O [PAZOPANIB]
- IC50 [1]: > 8 µM
- IC50 [2]: > 8 µM
- IC50 [3]: 4.47 µM
- IC50 [4]: > 8 µM
- IC50 [5]: > 8 µM
- IC50 [6]: > 8 µM
- IC50 [7]: > 8 µM
- IC50 [8]: > 8 µM
- IC50 [9]: > 8 µM
- IC50 [10]: > 8 µM
- IC50 [11]: > 8 µM
- IC50 [12]: > 8 µM
- IC50 [13]: > 8 µM
- IC50 [14]: > 8 µM
- IC50 [15]: > 8 µM
- IC50 [16]: > 8 µM
- IC50 [17]: > 8 µM
- IC50 [18]: > 8 µM
- IC50 [19]: 1.46 µM
- IC50 [20]: > 8 µM
- IC50 [21]: > 8 µM
- IC50 [22]: > 8 µM
- IC50 [23]: > 8 µM
- IC50 [24]: 3.74 µM
- IC50 [25]: > 8 µM
- IC50 [26]: > 8 µM
- IC50 [27]: > 8 µM
- IC50 [28]: > 8 µM
- IC50 [29]: > 8 µM
- IC50 [30]: > 8 µM
- IC50 [31]: > 8 µM
- IC50 [32]: > 8 µM
- IC50 [33]: 2.23 µM
- IC50 [34]: > 8 µM
- IC50 [35]: > 8 µM
- IC50 [36]: > 8 µM
- IC50 [37]: > 8 µM
- IC50 [38]: > 8 µM
- IC50 [39]: 7.69 µM
- IC50 [40]: > 8 µM
- IC50 [41]: > 8 µM
- IC50 [42]: > 8 µM
- IC50 [43]: > 8 µM
- IC50 [44]: > 8 µM
- IC50 [45]: > 8 µM
- IC50 [46]: 5.47 µM
- IC50 [47]: > 8 µM
- IC50 [48]: > 8 µM

Structure (SMILES): Cn1cncc1[C@@](N)(c1ccc(Cl)cc1)c1ccc2c(c1)c(-c1cccc(Cl)c1)cc(=O)n2C [TIPIFARNIB]
- IC50 [1]: 1.79 µM
- IC50 [2]: 1.82 µM
- IC50 [3]: 0.726 µM
- IC50 [4]: 2.1 µM
- IC50 [5]: 4.82 µM
- IC50 [6]: 2.36 µM
- IC50 [7]: 1.68 µM
- IC50 [8]: 3.59 µM
- IC50 [9]: > 16 µM
- IC50 [10]: 0.546 µM
- IC50 [11]: > 16 µM
- IC50 [12]: 7.24 µM
- IC50 [13]: > 16 µM
- IC50 [14]: 1.12 µM
- IC50 [15]: 11.8 µM
- IC50 [16]: > 16 µM
- IC50 [17]: 12.4 µM
- IC50 [18]: 1.42 µM
- IC50 [19]: 0.503 µM
- IC50 [20]: > 16 µM
- IC50 [21]: > 16 µM
- IC50 [22]: > 16 µM
- IC50 [23]: 5.73 µM
- IC50 [24]: 10.1 µM
- IC50 [25]: 9.82 µM
- IC50 [26]: > 16 µM
- IC50 [27]: 13.7 µM
- IC50 [28]: > 16 µM
- IC50 [29]: > 16 µM
- IC50 [30]: 4.62 µM
- IC50 [31]: > 16 µM
- IC50 [32]: > 16 µM
- IC50 [33]: 4.42 µM
- IC50 [34]: 14.4 µM
- IC50 [35]: 12.6 µM
- IC50 [36]: > 16 µM
- IC50 [37]: 8.07 µM
- IC50 [38]: 1.13 µM
- IC50 [39]: 6.05 µM
- IC50 [40]: > 16 µM
- IC50 [41]: 14.6 µM
- IC50 [42]: > 16 µM
- IC50 [43]: 11.6 µM
- IC50 [44]: > 16 µM
- IC50 [45]: > 16 µM
- IC50 [46]: 0.264 µM
- IC50 [47]: > 16 µM
- IC50 [48]: > 16 µM
